Results on four molecules are retold here after US20180117249A1, “Warburg Effect Targeted Chemotherapy Apparatus” (Cure Cancer Worldwide LLC, priority 2010, published 2018).

The conditions of data set [1]: cited from earlier work.
Data set [2] concerns breast cancer. Conditions: diabetic women taking metformin; diabetic control 8%, non-diabetic control 16%; cited from earlier work.
Data set [3] deals with breast cancer cells in culture. Conditions: methotrexate with insulin vs methotrexate alone; cited from earlier work.
The nature of data set [4]: Insulin-induced hypoglycemia safety profile (Xi'an, China). The data set is classed as in vivo, patients. The text has this:
Cure Cancer Worldwide in conjunction with several hospitals in China have been treating patients using a combination of insulin induced hypoglycemia in combination with standard chemotherapy treatments, generally given multiple times in a 3 week window but at 10% the standard dose. The safety of these treatments has been evaluated as well as the side effects.

A short description of data set [5]: Hypoglycemic glucose clamp in SCID mouse xenograft model. The data set is classed as in vivo. How it is done: The glucose clamp technique has been well developed in animals models for the purpose diabetes research. (Ayala, et al., 2011) We have adapted this technique for use in a SCID mouse xenograft model. FIG. 3 gives a schematic of this procedure. Briefly, mice are injected subcutaneously in the hind flank with a standard amount of cancer cells sufficient to cause a tumor to grow. After a few weeks when tumor volume measures around 300-500 mm3, mice undergo jugular vein cannulation. Mice are fasted for 5 hours prior to treatment with chemotherapy drugs. Depending on the pharmacokinetics of the drug, drugs are either given before the start of the glucose clamp or during the clamp procedure to correspond to the maximum effectiveness of the drug during the “hypoglycemia therapeutic window”. Injection pumps containing insulin, glucose and washed erythrocytes from donor mouse blood are connected to a swivel mixer which is in turn connected to the jugular catheters. For the initiation of the hypoglycemic clump, a bolus injection of insulin is given to reduce initial blood glucose levels which typically take around 30 minutes to lower blood glucose. Then a steady state of insulin and glucose is given to maintain blood glucose levels between 30-50 mg/dL for two hours. In practice, blood glucose levels range from 22-51 mg/dl with an average around 34 mg/dL (1.9 mmol/L). […]

Data set [6] concerns human esophageal and colonic cancer cells. To be noted: cited from earlier work.
In data set [7] the test system is MDA-MB-231 breast cancer cells. Conditions: cells incubated with insulin; cited from earlier work.
Data set [8] concerns breast cancer cells. Conditions: cells incubated with insulin; cited from earlier work.
In data set [9] the test system is breast cancer cells. Conditions: asynchronous population; 37% in controls; cited from earlier work.
Setting [10] is: insulin several hours before 5-FU vs 5-FU without insulin.

For the molecule `O=CC[C@@H](O)[C@H](O)[C@H](O)CO` [2DG, 2-deoxyglucose], in data set [1] (Raez, et al., 2013), the ECG effect entry is given as “irregular Electrocardiograph (ECG) heart rhythms”. For the same molecule, in [1] (clinical trials), the “main failure point in the clinic” value is “induced hyperglycemia”.

Take `CN(C)C(=N)N=C(N)N` [metformin]: the “pathological complete response (pCR) rate” value in data set [2] is on record as 24%.

Take `CN(Cc1cnc2nc(N)nc(N)c2n1)c1ccc(C(=O)N[C@@H](CCC(=O)O)C(=O)O)cc1` [methotrexate]: the lowering of methotrexate concentration for same percent cell killing in [3] is 10000 fold.

Regarding insulin, in [4] (950 insulin injections), the Comas was found to be 0 n, the Deaths came to 0 n and the “Time Interval of Hypoglycemia” value was 5-25 m. The Hypoglycemia range in data set [4] (insulin induced hypoglycemia with chemotherapy at 10% standard dose, initial blood glucose 3.86-7.95 mmol/l, 950 insulin injections) fell in the range of 1.0 to 3.4 mmol/L. For the same molecule, the Conclusion result in data set [4] (insulin-induced hypoglycemia safety profile) is listed as “safe”. For the same molecule, the “time to lower blood glucose” value in data set [5] (bolus injection of insulin at initiation of clamp) is listed as “around 30 minutes”. Moreover, the “blood glucose levels, range in practice” value in [5] (steady state of insulin and glucose for two hours, target 30-50 mg/dL) was 22 to 51 mg/dL. For the same molecule, in data set [6] (setting [10]), the apoptotic cell populations entry is “higher percentage of apoptotic cell populations” and the “inhibition of cell growth” value is listed as “greater inhibition of cell growth”. The “percent of S-phase cells” value in data set [6] (treatment of insulin) is given as “increase in the percent of S-phase cells”. For the same molecule, the “increase in the uptake of elipticine” value in data set [7] was 2 fold. In data set [8], the “stimulation of uptake of methotrexate” value is 50%. Also, the S-phase fraction in [9] is 66%.
